Consider six molecules from ChEMBL document CHEMBL6153025, “Multidrug-resistant bacteria quorum-sensing inhibitors: A particular focus on Pseudomonasaeruginosa” (Eur J Med Chem, 2025).

Assay [1] has as its system Pseudomonas aeruginosa. Nature of the assay: Antibacterial activity against Pseudomonas aeruginosa PAO1 assessed as bacterial growth inhibition after 20 hrs by liquid microdilution method. The format is functional, organism-based. The conditions noted are these: PAO1, 20 h.
The subject of assay [2] is Pseudomonas aeruginosa. Nature of the assay: Antivirulence activity against Pseudomonas aeruginosa PAO1 assessed as reduction in protease production. Type of assay: functional, organism-based.
Assay [3] has as its system Pseudomonas aeruginosa. Nature of the assay: Antivirulence activity against Pseudomonas aeruginosa PAO1 assessed as reduction in pyocyanin production. The format is functional, organism-based.
For assay [4], the system named is Pseudomonas aeruginosa. Nature of the assay: Antivirulence activity against Pseudomonas aeruginosa PAO1 assessed as reduction in elastase production. The format is functional, organism-based.
Assay [5] relates to Pseudomonas aeruginosa. Nature of the assay: Downregulation of rhlA mRNA level in Pseudomonas aeruginosa PAO1 at 32 ug/ml relative to control. The format is functional. The settings on record: dose 32 µg/ml.
Assay [6] can be described thus: Inhibition of quorum sensing system in Pseudomonas aeruginosa PAO1-pqsA-gfp assessed as reduction in fluorescence intensity incubated for 12 hrs by GFP reporter strain assay.
Assay [7] can be described thus: Inhibition of quorum sensing system in Pseudomonas aeruginosa PAO1- rhlA-gfp assessed as reduction in fluorescence intensity measured for 12 hrs by GFP reporter strain assay.
The test system of assay [8] is Pseudomonas aeruginosa. Nature of the assay: Antivirulence activity against Pseudomonas aeruginosa PAO1 assessed as reduction in pyocyanin level at 10 uM relative to control. Type of assay: functional. More on the design: scale not given: the % may be the effect or the level left.
Assay [9] has as its system Pseudomonas aeruginosa. Nature of the assay: Antivirulence activity in Pseudomonas aeruginosa PAO1 assessed as reduction in elastase production at 10 uM relative to control. The format is functional. More on the design: scale not given: the % may be the effect or the level left.
The test system of assay [10] is Pseudomonas aeruginosa. Nature of the assay: Antivirulence activity against Pseudomonas aeruginosa PAO1 assessed as inhibition of pyocyanin production at 25 ug/ml incubated for 16 hrs under agitation by photometric analysis relative to control. The format is functional. More on the design: scale not given: the % may be the effect or the level left. The conditions noted are these: dose 25 µg/ml.

Assay [11] concerns Pseudomonas aeruginosa. Nature of the assay: Antibacterial activity against Pseudomonas aeruginosa PAO1 assessed as bacterial growth inhibition measured after 18 hrs by CLSI protocol based two-fold serial microdilution method. Type of assay: functional.
The test system of assay [12] is Pseudomonas aeruginosa. Nature of the assay: Anti-virulence effect in Pseudomonas aeruginosa PAO1 assessed as inhibition of rhamnolipid production at 10 uM relative to control. The format is functional. More on the design: scale not given: the % may be the effect or the level left.
Assay [13] concerns Pseudomonas aeruginosa. Nature of the assay: Antivirulence activity against Pseudomonas aeruginosa PAO1 assessed as inhibition of pyocyanin production at 16 ug/ml relative to control. The format is functional. More on the design: scale not given: the % may be the effect or the level left. The settings on record: dose 16 µg/ml.
Assay [14] has as its system Pseudomonas aeruginosa. Nature of the assay: Antibiofilm activity against Pseudomonas aeruginosa PAO1 assessed as inhibition of biofilm formation at 32 ug/ml incubated for 8 hrs by crystal violet staining based assay relative to control. Type of assay: functional. On the set-up: scale not given: the % may be the effect or the level left. The conditions noted are these: dose 32 µg/ml.

The nature of assay [15]: Inhibition of quorum sensing system in Pseudomonas aeruginosa PAO1 expressing lasB-gfp assessed as reduction fluorescence intensity measured for 12 hrs by GFP reporter strain assay.
The test system of assay [16] is Pseudomonas aeruginosa. Nature of the assay: Downregulation of lasB mRNA level in Pseudomonas aeruginosa PAO1. The format is functional.
For assay [17], the system named is Pseudomonas aeruginosa. Nature of the assay: Antibacterial activity against Pseudomonas aeruginosa PAO1 by broth microdilution method. The format is functional.
The subject of assay [18] is Pseudomonas aeruginosa. Nature of the assay: Downregulation of lasR mRNA expression in Pseudomonas aeruginosa PAO1. The format is functional.
Assay [19] deals with Pseudomonas aeruginosa. Nature of the assay: Antivirulence activity against Pseudomonas aeruginosa PAO1 assessed as inhibition of rhamnolipid production at 16 ug/ml relative to control. The format is functional. The conditions noted are these: dose 16 µg/ml. More on the design: scale not given: the % may be the effect or the level left.
In assay [20] the test system is Pseudomonas aeruginosa. Nature of the assay: Antibiofilm activity against Pseudomonas aeruginosa PAO1 assessed as inhibition of biofilm formation at 16 ug/ml incubated for 24 hrs by crystal violet staining based assay relative to control. Type of assay: functional. On the set-up: scale not given: the % may be the effect or the level left. The settings on record: dose 16 µg/ml.

In assay [21] the test system is Pseudomonas aeruginosa. Nature of the assay: Antibiofilm activity against Pseudomonas aeruginosa PA14 assessed as reduction in biofilm formation at 16 ug/ml incubated for 2 to 4 hrs by crystal violet staining based analysis relative to control. Type of assay: functional. More on the design: scale not given: the % may be the effect or the level left. The settings on record: dose 16 µg/ml; time 2-4 hrs.

The nature of assay [22]: Inhibition of quorum sensing system in Pseudomonas aeruginosa PAO1 expressing lasB-gfp at 16 uM relative to control.

Values after ≈ are worked out from the molar mass of the structure shown.

For `COc1c(O)cc(O)c2c(=O)cc(-c3ccccc3)oc12` [WOGONIN], the half-inhibitory concentration (IC50) in assay [1], in assay [2], in assay [3] and in assay [4] was 15 µg/mL (≈ 52.8 µM) each time.
As to `C=C1CC(=O)N(CCCCCCCCCCCCCC)C1=O`, the Activity in assay [5] was 75%; in assay [8], 55%; in assay [9], 50%. For the same molecule, the IC50 was found to be 143 nM in assay [6] and 610 nM in assay [7].
As for `Oc1ncnc2[nH]ncc12` [ALLOPURINOL], the Activity was found to be 70% in assay [10], 74% in assay [12] and 74% in [13]. Moreover, the minimum inhibitory concentration (MIC) in [11] came to 2 µg/mL (≈ 14.7 µM).
Regarding `[O-][S+](Cc1ccc(Cl)cc1)c1nnc(-c2ccccc2)o1` (stereo not drawn), the Activity in assay [14] worked out at 46.8%. In addition, the IC50 in assay [15] was 3.53 µM.
For the molecule `COc1ccccc1N1CCN(c2ccnc(SCC(=O)Nc3c(C)cc(C)cc3C)n2)CC1`, the Activity in [16] was found to be 85%; in assay [18], 85%; in [13], 76.56%; in assay [19], 62.46%; in assay [20], 52.4%. In assay [17], this molecule yielded an MIC of 500 µM (≈ 239 µg/mL).
Take `CCCCCCC/C=C\C(=O)O`: the Activity in [21] is recorded as 8%. Also, the inhibition in assay [22] was determined as 44%.
